Patent publication US20190284635A1, “METHOD FOR THE PROGNOSIS AND/OR TREATMENT OF ACUTE PROMYELOCYTIC LEUKEMIA” (EPI-C S.R.L., priority 2016, published 2019)

Experiments:
[1] = system: acetyl-H3K9-14, H3K27me3/2, EZH2 in NB4 cells; assay: Western blot of histone marks and EZH2 in NB4 cells; assay type: cell-based, human
Description: The procedures were performed as described in (31,34). Primary antibodies used were: H3K27me3 (Abcam); H3K9-14ac (Millipore); H3K27ac, EZH2, PARP, TRAIL, RIP (Abcam); BID, BAX, BCL2 (Cell Signaling); BCL-XL (BD Biosciences); ERKs (Santa Cruz) and α-tubulin (Sigma) were used to normalize the total protein extracts, while H1 (Abcam) to normalize histone extracts.

SHSY5Y cells = assay: Cell death induction in SHSY5Y cells; assay type: cell-based; conditions: 48 h; for cell death induction in SHSY5Y cells, in words, relative to MC2884: 3 μM; for cytotoxicity at 3 µM: Homo sapiens, SH-SY5Y
Description: (§1) For cell cycle analyses, the cells were plated (2×10^5 cells/mL) and after stimulation (performed as indicated in the text) were harvested, centrifuged at 1200 rpm for 5 minutes and resuspended in 500 μL of a hypotonic solution containing 1×PBS, Sodium Citrate 0.1%, 0.1% NP-40, RNAase A and […] Propidium Iodide (PI) (a dye that intercalates between the DNA bases, marking the DNA content in the cells and emitting a fluorescent signal that enables the analysis). After 30′ at room temperature (RT) in the dark, samples were acquired by FACS-Calibur (BD Bioscences, San Jose, Calif., USA) using CellQuest software (BD Biosciences). The percentage in different phases of the cell cycle was determined by ModFit LT V3 software (Verity). All experiments were performed in triplicate.
When tested in neuroblastoma SHSY5Y cells at 3 μM for 48 h, MC2884 and its analogues furnished similar trend of death induction as in NB4 cells (Table 7). In general, the SHSY5Y cell line is less sensitive to the tested molecules than NB4 cells.

NB4 cells [2] = assay: Cell death induction in NB4 cells; assay type: cell-based, human; conditions: for cytotoxicity at 3 µM: Homo sapiens, NB-4, 30 h; for % Cell death NB4 cells: 3 μM, 30 h
Description: as §1
When tested in leukemia NB4 cells at 3 μM for 30 h, MC2884 induced 52.1% cell death. Some MC2884 analogues have been tested to obtain SAR data (Table 8).

CYP3A4 = biological target: T1, CYP3A4 (Homo sapiens, UniProt P08684); assay: Cytochrome P450 inhibition, CYP3A4, human liver microsomes; assay type: in vitro ADME; conditions: at 25 μM, probe midazolam
T1 construct: from tissue; host or cells: human liver microsomes
T1 sequence (P08684 whole entry): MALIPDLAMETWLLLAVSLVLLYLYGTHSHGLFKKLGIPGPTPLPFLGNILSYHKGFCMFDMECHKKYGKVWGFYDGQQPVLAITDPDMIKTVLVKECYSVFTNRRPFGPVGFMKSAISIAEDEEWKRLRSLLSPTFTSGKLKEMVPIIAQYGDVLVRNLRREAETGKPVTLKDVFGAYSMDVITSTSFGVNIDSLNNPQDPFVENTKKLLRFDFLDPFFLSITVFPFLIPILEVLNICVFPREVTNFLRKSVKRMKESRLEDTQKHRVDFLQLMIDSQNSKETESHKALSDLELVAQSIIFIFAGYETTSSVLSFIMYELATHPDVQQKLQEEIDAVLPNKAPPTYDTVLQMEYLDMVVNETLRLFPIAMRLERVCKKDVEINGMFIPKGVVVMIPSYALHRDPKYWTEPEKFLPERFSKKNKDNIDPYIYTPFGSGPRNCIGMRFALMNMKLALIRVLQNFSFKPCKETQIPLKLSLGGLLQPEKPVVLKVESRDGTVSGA

[3] = Mouse terminal IP PK study; assay type: in vivo, male CD1 mice; conditions: plasma, 2 mg/kg
Description: (§2) Compound was administered both intravenously and intraperitoneally to mice. Blood samples were collected at 8 time points over 24 hr and plasma analysed by LC-MS/MS to determine the concentration of compound.
(§3) The plasma time concentration profile was calculated with the main PK parameters (Co, AUClast, t, VD, and CL).
For ip dosing. After formulation assessment, MC2884 was dissolved at 0.2 mg/mL. This provided a dose of 2 mg free base material/kg when administered ip in a 10 mL/kg dosing volume.
(§4) Compound MC2884 was given ip at a dose of 2 mg/kg to a group of 24 normally fed male CD1 mice in a 10 mL/kg injection volume. Terminal blood samples (>230 μL) were taken under CO2 from groups of 3 mice at each of 8 time-points post dose (0.083, 0.25, 0.5, 1, 2, 4, 8 and 24 h) and placed into heparinized tubes. Samples were placed on ice for no longer than 30 min before centrifugation (10,000 rpm×3 min). Plasma samples (>100 μL) were collected into fresh tubes and frozen on dry ice. All samples were stored at −20° C. Number of plasma samples=24. FIG. 17-18 display results for IV-IP administration of MC2884 in normal mice

[4] = system: immortalized non-cancer cell systems; assay: Cytotoxicity on immortalized non-cancer cells; conditions: at the dose effective on cancer cells
Description: Colorimetric exclusion: cells (2×10^5 cells/mL) were plated in multiwells and in triplicate.

[5] = Stability of MC2884 in cell culture medium (DMEM, RP-HPLC); assay type: physicochemical; conditions: 50 μM in DMEM
Description: The compound was dissolved in DMEM at 50 μM and its concentration was measured by RP-HPLC using a ONYX 50×2 mm ID C18 column operating at 600 μL/min. The gradient applied was from 1% solvent B to 70% solvent B in 10 minutes. Solvent A was water with added 0.1% trifluoroacetic acid (TFA) and solvent B was acetonitrile with added 0.1% TFA. The eluate was monitored using a diode array detector with wavelengths set between 200-320 nm. The compound was eluted at 11.1 min. Peak integration was carried out on the chromatogram extracted at […], which is one of the compound absorbance maxima. A calibration curve was built by injecting solutions of the compound in DMSO at concentrations ranging between 1.5 μM and 200 μM. After incubation in DMEM compound concentration was determined at time points ranging between 0 and 72 hrs. As shown, half of compound was degraded after 10h. At 72 hrs it was fully degraded under these conditions.

[6] = Mouse terminal IV PK study; assay type: in vivo; conditions: 2 mg/kg, male CD1 mice, plasma
Description: as §2, §3
For iv dosing. Compound was dissolved at 0.4 mg/mL. This provided a dose of 2 mg free base material/kg when administered iv in a 5 mL/kg dosing volume.
as §4, with “given iv via the lateral tail vein” for “given ip”, “a 5” for “a 10”, “ice.” for “ice. All samples were stored at −20° C.”, “samples=24. Consistent IV profiles were obtained, with little variability across the time-points (the average profile is shown in the second spreadsheet). […]” for “samples=24.”, “normal mice.” for “normal mice”

NB4 cells [7] = assay: Combination of ABT-737 with MC2884, pre-G1 cells; assay type: cell-based, human; conditions: ABT-737 with addition of MC2884 at concentrations that alone induced little apoptosis
Description: For cell cycle analyses, the cells were plated (2×10^5 cells/mL) and after stimulation (performed as indicated in the text) were harvested, centrifuged at 1200 rpm for 5 minutes and resuspended in 500 μL of a hypotonic solution containing 1×PBS, Sodium Citrate 0.1%, 0.1% NP-40, RNAase A and 50 mg/mL Propidium Iodide (PI) (a dye that intercalates between the DNA bases, marking the DNA content in the cells and emitting a fluorescent signal that enables the analysis). After 30' at room temperature (RT) in the dark, samples were acquired by FACS-Calibur (BD Bioscences, San Jose, Calif., USA) using CellQuest software (BD Biosciences). The percentage in different phases of the cell cycle was determined by ModFit LT V3 software (Verity). All experiments were performed in triplicate.

[8] = system: APL-Rs (pt#7 and 8) blasts; assay: Cell death in ex vivo APL-R blasts; assay type: cell-based, human; conditions: pt#7 and 8, 24 h
Description: Blasts cells were purified by the Ficoll-Hypaque gradient separation method (GE Healthcare). RNA was obtained by using TRIzol (Life Technologies) according to the manufacturer's recommendations. Isolation of genomic DNA has complied the FlexiGene DNA protocol (Qiagen).
To further strengthen our findings in primary human cells, apoptosis was evaluated in 6 AML patient blasts (FIG. 10C).

GCN5 = GCN5 (Homo sapiens, UniProt Q92830); assay: HAT in vitro assay, GCN5; assay type: biochemical; conditions: substrate Histone H3; 3 μM Acetyl-CoA; 10-dose IC50 mode; read-out: IC50 GCN5 acetyltransferase
GCN5, sequence (Q92830 whole entry): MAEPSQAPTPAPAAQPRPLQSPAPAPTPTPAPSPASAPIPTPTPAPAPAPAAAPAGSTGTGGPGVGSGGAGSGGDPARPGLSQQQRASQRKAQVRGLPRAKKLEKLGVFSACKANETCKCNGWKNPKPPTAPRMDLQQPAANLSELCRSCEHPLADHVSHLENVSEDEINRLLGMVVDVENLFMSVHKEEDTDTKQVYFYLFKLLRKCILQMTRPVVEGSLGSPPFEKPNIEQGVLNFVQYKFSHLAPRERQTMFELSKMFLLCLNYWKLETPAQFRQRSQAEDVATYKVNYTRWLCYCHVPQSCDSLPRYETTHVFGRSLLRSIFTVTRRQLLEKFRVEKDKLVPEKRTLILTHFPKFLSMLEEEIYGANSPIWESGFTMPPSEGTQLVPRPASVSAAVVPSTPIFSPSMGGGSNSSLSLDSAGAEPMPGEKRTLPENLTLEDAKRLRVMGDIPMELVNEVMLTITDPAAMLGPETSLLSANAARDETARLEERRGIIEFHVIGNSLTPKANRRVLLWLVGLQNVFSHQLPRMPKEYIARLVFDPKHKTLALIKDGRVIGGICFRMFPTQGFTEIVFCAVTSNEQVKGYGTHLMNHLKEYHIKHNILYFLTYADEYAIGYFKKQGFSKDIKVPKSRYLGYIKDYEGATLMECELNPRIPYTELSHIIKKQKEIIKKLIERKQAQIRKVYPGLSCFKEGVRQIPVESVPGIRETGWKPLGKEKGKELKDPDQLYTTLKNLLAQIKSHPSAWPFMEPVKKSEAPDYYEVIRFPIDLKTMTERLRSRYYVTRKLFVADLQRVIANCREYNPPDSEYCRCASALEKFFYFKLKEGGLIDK
Description: (§5) MC2884 activity was also tested in vitro and IC50 was calculated as indicated in the scheme. […] Reactions were carried out at 3 μM Acetyl-CoA. Empty cells indicate no inhibition or compound activity that could not be fit to an IC50 curve.

pCAF = pCAF (Homo sapiens, UniProt Q92831); assay: HAT in vitro assay, pCAF; assay type: biochemical; conditions: substrate Histone H3; 3 μM Acetyl-CoA; 10-dose IC50 mode; read-out: IC50 pCAF acetyltransferase
pCAF, sequence (Q92831 whole entry): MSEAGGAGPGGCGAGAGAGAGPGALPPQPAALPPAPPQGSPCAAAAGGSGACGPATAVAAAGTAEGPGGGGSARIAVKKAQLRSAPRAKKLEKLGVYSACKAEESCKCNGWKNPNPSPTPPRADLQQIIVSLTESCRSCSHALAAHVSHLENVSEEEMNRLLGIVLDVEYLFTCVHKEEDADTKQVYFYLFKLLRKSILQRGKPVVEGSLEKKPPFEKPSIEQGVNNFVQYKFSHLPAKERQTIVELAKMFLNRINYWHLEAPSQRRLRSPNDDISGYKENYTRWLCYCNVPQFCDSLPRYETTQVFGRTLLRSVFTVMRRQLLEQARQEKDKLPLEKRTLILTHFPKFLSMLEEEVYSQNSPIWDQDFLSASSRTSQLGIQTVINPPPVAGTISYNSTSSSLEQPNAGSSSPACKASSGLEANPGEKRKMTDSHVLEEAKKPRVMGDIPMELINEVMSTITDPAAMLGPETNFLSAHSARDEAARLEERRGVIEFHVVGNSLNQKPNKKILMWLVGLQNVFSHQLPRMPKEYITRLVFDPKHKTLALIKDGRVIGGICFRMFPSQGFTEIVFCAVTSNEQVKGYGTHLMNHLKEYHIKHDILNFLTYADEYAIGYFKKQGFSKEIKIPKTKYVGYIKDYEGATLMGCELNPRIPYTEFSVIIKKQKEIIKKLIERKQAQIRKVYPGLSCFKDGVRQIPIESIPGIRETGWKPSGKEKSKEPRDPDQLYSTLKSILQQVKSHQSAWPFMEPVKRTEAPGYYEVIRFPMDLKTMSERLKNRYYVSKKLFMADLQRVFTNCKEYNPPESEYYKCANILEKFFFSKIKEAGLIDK
Description: as §5

KAT5 = KAT5 (Homo sapiens, UniProt Q92993); assay: HAT in vitro assay, KAT5; assay type: biochemical; conditions: substrate Histone H2A; 3 μM Acetyl-CoA; 10-dose IC50 mode; read-out: IC50 KAT5 acetyltransferase
KAT5, sequence (Q92993 whole entry): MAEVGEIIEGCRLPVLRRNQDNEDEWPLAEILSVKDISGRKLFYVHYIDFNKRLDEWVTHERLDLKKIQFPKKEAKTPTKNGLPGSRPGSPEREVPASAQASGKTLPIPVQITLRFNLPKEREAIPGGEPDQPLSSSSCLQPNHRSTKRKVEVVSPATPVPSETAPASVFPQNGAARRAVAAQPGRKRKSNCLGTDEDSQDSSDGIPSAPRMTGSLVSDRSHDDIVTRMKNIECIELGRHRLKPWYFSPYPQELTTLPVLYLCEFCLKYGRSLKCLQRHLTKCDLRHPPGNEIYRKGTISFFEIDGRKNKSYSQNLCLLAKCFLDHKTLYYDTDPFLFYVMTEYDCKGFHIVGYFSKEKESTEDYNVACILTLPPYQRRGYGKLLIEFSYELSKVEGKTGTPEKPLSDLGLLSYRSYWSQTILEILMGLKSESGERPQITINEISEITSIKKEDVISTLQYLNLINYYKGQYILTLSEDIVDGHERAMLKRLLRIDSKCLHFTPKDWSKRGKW
Description: as §5

CBP = CBP (Homo sapiens, UniProt Q92793); assay: HAT in vitro assay, CBP; assay type: biochemical; conditions: substrate Histone H3; 3 μM Acetyl-CoA; 10-dose IC50 mode; read-out: IC50 CBP acetyltransferase
CBP, sequence (Q92793 whole entry): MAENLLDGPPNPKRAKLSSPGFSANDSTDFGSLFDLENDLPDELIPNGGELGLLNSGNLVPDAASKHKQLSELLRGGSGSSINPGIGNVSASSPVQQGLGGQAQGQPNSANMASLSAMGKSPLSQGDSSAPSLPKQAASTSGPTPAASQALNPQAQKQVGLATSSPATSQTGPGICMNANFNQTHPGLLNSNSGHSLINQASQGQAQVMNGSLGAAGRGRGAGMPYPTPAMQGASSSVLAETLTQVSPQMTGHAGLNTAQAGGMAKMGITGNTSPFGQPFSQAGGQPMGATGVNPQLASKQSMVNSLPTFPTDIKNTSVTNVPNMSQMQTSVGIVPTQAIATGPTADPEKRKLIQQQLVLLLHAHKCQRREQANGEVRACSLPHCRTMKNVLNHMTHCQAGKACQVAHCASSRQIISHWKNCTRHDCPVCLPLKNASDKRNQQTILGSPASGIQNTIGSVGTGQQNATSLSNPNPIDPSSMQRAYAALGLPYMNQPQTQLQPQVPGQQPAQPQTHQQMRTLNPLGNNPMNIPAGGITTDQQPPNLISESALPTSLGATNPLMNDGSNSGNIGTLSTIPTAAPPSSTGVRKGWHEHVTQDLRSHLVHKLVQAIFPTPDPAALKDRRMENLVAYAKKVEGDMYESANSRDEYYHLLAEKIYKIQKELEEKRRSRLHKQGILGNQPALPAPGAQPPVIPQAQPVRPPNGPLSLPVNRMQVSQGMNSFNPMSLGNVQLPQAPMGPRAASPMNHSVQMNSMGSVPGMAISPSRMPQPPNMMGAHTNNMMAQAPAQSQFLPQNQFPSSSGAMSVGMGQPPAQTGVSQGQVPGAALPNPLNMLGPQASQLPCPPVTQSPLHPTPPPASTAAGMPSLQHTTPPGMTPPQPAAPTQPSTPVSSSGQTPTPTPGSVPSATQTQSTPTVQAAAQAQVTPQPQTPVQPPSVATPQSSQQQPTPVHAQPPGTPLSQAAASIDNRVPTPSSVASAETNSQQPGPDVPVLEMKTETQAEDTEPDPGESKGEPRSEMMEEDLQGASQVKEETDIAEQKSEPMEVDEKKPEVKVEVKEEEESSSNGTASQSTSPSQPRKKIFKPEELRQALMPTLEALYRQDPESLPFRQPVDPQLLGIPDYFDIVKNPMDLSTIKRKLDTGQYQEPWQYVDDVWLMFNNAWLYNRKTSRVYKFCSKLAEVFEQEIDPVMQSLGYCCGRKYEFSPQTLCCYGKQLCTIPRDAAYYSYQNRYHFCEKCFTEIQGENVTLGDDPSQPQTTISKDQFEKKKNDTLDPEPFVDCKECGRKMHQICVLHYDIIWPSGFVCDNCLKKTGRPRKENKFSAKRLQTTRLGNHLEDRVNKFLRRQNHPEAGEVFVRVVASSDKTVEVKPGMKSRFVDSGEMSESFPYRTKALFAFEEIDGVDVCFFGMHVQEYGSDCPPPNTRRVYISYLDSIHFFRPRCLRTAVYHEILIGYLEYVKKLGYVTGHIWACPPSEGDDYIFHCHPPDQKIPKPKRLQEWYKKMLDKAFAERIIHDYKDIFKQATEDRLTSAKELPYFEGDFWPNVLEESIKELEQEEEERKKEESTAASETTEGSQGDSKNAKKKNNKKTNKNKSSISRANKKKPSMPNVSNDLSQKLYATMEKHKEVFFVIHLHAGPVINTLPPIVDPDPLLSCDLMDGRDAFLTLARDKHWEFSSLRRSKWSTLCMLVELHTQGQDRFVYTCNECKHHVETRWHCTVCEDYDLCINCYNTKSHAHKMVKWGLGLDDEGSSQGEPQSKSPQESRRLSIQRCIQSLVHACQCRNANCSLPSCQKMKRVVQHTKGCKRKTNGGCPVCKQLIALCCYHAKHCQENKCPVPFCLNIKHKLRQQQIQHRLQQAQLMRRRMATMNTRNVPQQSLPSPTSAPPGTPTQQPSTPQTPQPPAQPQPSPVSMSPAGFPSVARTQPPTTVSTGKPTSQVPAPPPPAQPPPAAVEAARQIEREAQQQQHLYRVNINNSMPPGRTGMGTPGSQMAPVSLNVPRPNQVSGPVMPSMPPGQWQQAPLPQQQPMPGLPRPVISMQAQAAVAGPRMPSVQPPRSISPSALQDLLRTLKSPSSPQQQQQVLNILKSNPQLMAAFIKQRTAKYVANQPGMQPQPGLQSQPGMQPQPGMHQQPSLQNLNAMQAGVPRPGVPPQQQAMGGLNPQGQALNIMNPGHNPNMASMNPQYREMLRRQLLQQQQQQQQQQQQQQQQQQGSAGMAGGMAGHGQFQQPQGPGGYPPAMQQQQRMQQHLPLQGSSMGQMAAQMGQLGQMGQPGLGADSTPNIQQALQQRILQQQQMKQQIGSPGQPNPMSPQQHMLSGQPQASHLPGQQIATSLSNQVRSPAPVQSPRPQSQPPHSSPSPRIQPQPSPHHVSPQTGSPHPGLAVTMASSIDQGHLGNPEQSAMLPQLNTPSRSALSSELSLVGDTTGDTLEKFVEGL
Description: as §5

## O=C1/C(=C/c2ccc(Br)cc2)CN(Cc2ccccc2)C/C1=C\c1ccc(Br)cc1 [MC2909, 1-benzyl-3,5-bis(4-bromobenzylidene)piperidin-4-one]
[1]
  modulation of histone acetylation and EZH2 deregulation: unable to modulate
SHSY5Y cells
  cell death induction in SHSY5Y cells, in words, relative to MC2884: less potent or not active
  cytotoxicity at 3 µM: 4.7%
NB4 cells [2]
  cytotoxicity at 3 µM: 8.8%

## O=C1/C(=C/c2cccc(Br)c2)CN(CC(=O)c2ccccc2)C/C1=C\c1cccc(Br)c1 [MC3207, 3,5-bis(3-bromobenzylidene)-1-(2-oxo-2-phenylethyl)piperidin-4-one]
SHSY5Y cells
  cytotoxicity at 3 µM: 7%
NB4 cells [2]
  % Cell death NB4 cells: 38.0%
  cytotoxicity at 3 µM: 38%

## O=C1/C(=C/c2ccc(O)cc2Br)CN(Cc2ccccc2)C/C1=C\c1ccc(O)cc1Br [MC3395, 1-benzyl-3,5-bis((E)-2-bromo-4-hydroxybenzylidene)piperidin-4-one]
SHSY5Y cells
  cytotoxicity at 3 µM: 1%
NB4 cells [2]
  cytotoxicity at 3 µM: 0.53%

## O=C1/C(=C/c2cccc(Br)c2)CSC/C1=C\c1cccc(Br)c1 [MC2913, 3,5-bis(3-bromobenzylidene)dihydro-2H-thiopyran-4(3H)-one]
SHSY5Y cells
  cytotoxicity at 3 µM: 23.9%
NB4 cells [2]
  cytotoxicity at 3 µM: 52.7%

## O=C(/C=C/c1ccc(Br)cc1)/C=C/c1ccc(Br)cc1 [MC2886, (1E,4E)-1,5-bis(4-bromophenyl)penta-1,4-dien-3-one]
SHSY5Y cells
  cytotoxicity at 3 µM: 1.2%
NB4 cells [2]
  cytotoxicity at 3 µM: 0.56%

## O=C1/C(=C/c2cccc(Br)c2)CN(CCCc2ccccc2)C/C1=C\c1cccc(Br)c1 [MC3272, 3,5-bis(3-bromobenzyliden)-1-(3-phenylpropyl) piperidin-4-one]
SHSY5Y cells
  cytotoxicity at 3 µM: 7%
NB4 cells [2]
  cytotoxicity at 3 µM: 29.2%

## O=C1/C(=C/c2cc(Br)cc(Br)c2)CN(Cc2ccccc2)C/C1=C\c1cc(Br)cc(Br)c1 [MC2910, 1-benzyl-3,5-bis(3,5-dibromobenzylidene)piperidin-4-one]
SHSY5Y cells
  cytotoxicity at 3 µM: 2.4%
NB4 cells [2]
  cytotoxicity at 3 µM: 4.2%

## O=C1/C(=C/c2ccccc2Br)CN(Cc2ccccc2)C/C1=C\c1ccccc1Br [MC2908, 1-benzyl-3,5-bis(2-bromobenzylidene)piperidin-4-one]
SHSY5Y cells
  cytotoxicity at 3 µM: 9.2%
NB4 cells [2]
  cytotoxicity at 3 µM: 30.3%

## CN1C/C(=C\c2cccc(Br)c2)C(=O)/C(=C/c2cccc(Br)c2)C1 [MC2914, 3,5-bis(3-bromobenzylidene)-1-methylpiperidin-4-one]
SHSY5Y cells
  cell death induction in SHSY5Y cells, in words, relative to MC2884: reduced the potency
  cytotoxicity at 3 µM: 9%
NB4 cells [2]
  % Cell death NB4 cells: 36.0%
  cytotoxicity at 3 µM: 36%

## O=C1/C(=C/c2cccc(Br)c2)CN(C(=O)c2ccccc2)C/C1=C\c1cccc(Br)c1 [MC3146, 1-benzoyl-3,5-bis(3-bromobenzylidene)piperidin-4-one]
SHSY5Y cells
  cytotoxicity at 3 µM: 5.6%
NB4 cells [2]
  cytotoxicity at 3 µM: 13.2%

## O=C1/C(=C/c2cccc(Br)c2)CN(Cc2ccccc2)C/C1=C\c1cccc(Br)c1 [MC2884, 1-benzyl-3,5-bis(3-bromobenzylidene)piperidin-4-one]
CYP3A4
  CYP3A4 % inhibition: 45%
NB4 cells [2]
  cytotoxicity at 3 µM: 52.1%
[3]; male, CD1, mouse, dose route IP, time frame 0-inf
  bioavailability: 140%
[3]; mouse, ip, male CD1 mice
  AUC: 18400 ng·h/mL
[4]
  cytotoxicity on non-cancer cells: low cytotoxicity
[5]
  time for total degradation in culture medium: 72 h
[6]
  average half-life: 4.58 h
[6]; mouse
  AUC: 13300 ng·h/mL

## CN(C)CC[C@H](CSc1ccccc1)Nc1ccc(S(=O)(=O)NC(=O)c2ccc(N3CCN(Cc4ccccc4-c4ccc(Cl)cc4)CC3)cc2)cc1[N+](=O)[O-] [ABT-737]
NB4 cells [7]
  cell death with ABT-737 plus MC2884: up to 60%

## CC1=C(/C=C/C(C)=C/C=C/C(C)=C/C(=O)O)C(C)(C)CCC1 [ATRA, All Trans Retinoic Acid]
[8]
  apoptosis in ex vivo APL-R blasts: did not undergo efficient apoptosis

## O=C1/C(=C/c2cccc(Br)c2)CN(CCc2ccccc2)C/C1=C\c1cccc(Br)c1 [MC3269, 3,5-bis(3-bromobenzylidene)-1-phenethylpiperidin-4-one]
SHSY5Y cells
  cell death induction in SHSY5Y cells, in words, relative to MC2884: same potency as MC2884
  cytotoxicity at 3 µM: 19.2%
NB4 cells [2]
  cytotoxicity at 3 µM: 62.5%

## O=C1/C(=C/c2cccc(Br)c2)CN(C(=O)CCc2ccccc2)C/C1=C\c1cccc(Br)c1 [MC3187, 3,5-bis(3-bromobenzylidene)-1-(3-phenylpropanoyl) piperidin-4-one]
SHSY5Y cells
  cell death induction in SHSY5Y cells, in words, relative to MC2884: slightly more potent than MC2884
  cytotoxicity at 3 µM: 19.9%
NB4 cells [2]
  cytotoxicity at 3 µM: 28.9%

## O=C1/C(=C/c2cccc(Br)c2)COC/C1=C\c1cccc(Br)c1 [MC2912, 3,5-bis(3-bromobenzylidene)dihydro-2H-pyran-4(3H)-one]
SHSY5Y cells
  cytotoxicity at 3 µM: 1%
NB4 cells [2]
  cytotoxicity at 3 µM: 4.1%

## CCCCCCCCCCCCCCCc1cccc(O)c1C(=O)O [Anacardic Acid]
GCN5
  IC50: 38.6 µM
pCAF
  IC50: 38.8 µM

## O=C1/C(=C/c2cccc(Br)c2)CCC/C1=C\c1cccc(Br)c1 [MC2911, 2,6-bis((E)-3-bromobenzylidene)cyclohexan-1-one]
SHSY5Y cells
  cytotoxicity at 3 µM: 0.8%
NB4 cells [2]
  cytotoxicity at 3 µM: 0.76%

## CC1=NN(c2ccc(C(=O)O)cc2)C(=O)/C1=C\c1ccc(-c2cc(C)c(C)cc2[N+](=O)[O-])o1 [C646]
KAT5
  IC50: 20.4 µM
CBP
  IC50: 0.0787 µM
